Values quoted from earlier work as cited in patent US9890223B2, “Resin particles and process for producing same, antiglare film, light-diffusing resin composition, and external preparation” (SEKISUI PLASTICS CO., LTD., priority 2010, dated 2018).

Details: 20° C.

Row | SMILES | Solubility in Water
1 | C=C(C)C(=O)OCC(C)C [Isobutyl methacrylate] | 0.04 % by weight
2 | C=C(C)C(=O)OCCCCCCCCCCCC [Lauryl methacrylate] | 0.01 or less % by weight
3 | C=C(C)C(=O)OC [Methyl methacrylate] | 1.72 % by weight
4 | C=C(C)C(=O)OCCCC [n-butyl methacrylate] | 0.04 % by weight
5 | C=C(C)C(=O)OC(C)(C)C [tert-butyl methyacrylate] | 0.05 % by weight
